The source of these data is ChEMBL document CHEMBL1201862, “PubChem BioAssay data set” (2004).

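Step 1: Grow cells in 96-well plates. Step 2: Expose to compound for 48 hours at 5 concentrations. Step 3: Interpolate endpoints linearly; if unreached, use highest concentration. GI50: concentration for 50% inhibition of growth.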 Calls of active or inactive are those of the source. No stated cut-off is given here; in the data, active = GI50 up to about 1.1 µM and inactive = higher. Where only a bound is given, the exact number is not on record here.

Among the test systems are HCT-15; Hs-578T; IGROV-1; KM12; LOX IMVI; MCF7; MDA-MB-231; NCI-H460; PC-3; RXF 393; SF-268; SK-MEL-2; SNB-19; SW-620; UACC-257; TK-10.
Common to all, as to assay: inhibition of tumour cell growth, NCI panel, 48 h

For `Cc1cccc(NC(=S)N/N=C2\C(=O)Nc3ccccc32)c1`, the GI50 in the assay on HCT-15 is 73.8 µM; with Hs-578T, > 100 µM (inactive); with IGROV-1, 49.3 µM (inactive); in the assay with KM12, 39 µM (inactive); in the assay with LOX IMVI, 51.4 µM (inactive); with MCF7, > 100 µM (inactive). The GI50 in the assay on MDA-MB-231 was > 100 µM (inactive); in the assay on NCI-H460 it was 48.3 µM (inactive); in the assay on PC-3, 68.4 µM (inactive); with RXF 393, 30.1 µM (inactive); with SF-268, 4.98 µM (inactive); in the assay on SK-MEL-2, 70.6 µM (inactive). The GI50 with SNB-19, in the assay on SW-620 and in the assay on UACC-257 was > 100 µM (inactive) each time.
For the molecule `COc1ccc(CCn2ccc(C)n2)c(OC)c1`, the GI50 with HCT-15 was > 100 µM; with Hs-578T, > 100 µM (inactive); with IGROV-1, > 100 µM (inactive); in the assay on KM12 it was > 100 µM (inactive); in the assay on LOX IMVI, > 100 µM (inactive); with MCF7, > 100 µM (inactive). The GI50 with MDA-MB-231, with NCI-H460, in the assay on PC-3, with RXF 393, in the assay with SF-268 and in the assay on SNB-19 was > 100 µM (inactive) throughout. Further, the GI50 in the assay with SW-620, in the assay with TK-10 and in the assay with UACC-257 was > 100 µM (inactive) in each case.
With `COc1cc(/N=C\N(C)C)c2ncccc2c1`, the GI50 is 38.1 µM with HCT-15; 98.4 µM (inactive) in the assay on Hs-578T; 33.9 µM (inactive) with IGROV-1; 44.4 µM (inactive) with LOX IMVI; 48.5 µM (inactive) in the assay on MCF7; 35.2 µM (inactive) in the assay with MDA-MB-231. Also, the GI50 in the assay with PC-3 was 90.6 µM (inactive); with RXF 393, 75.3 µM (inactive); with SF-268 it was 66.1 µM (inactive); in the assay on SK-MEL-2, 46.2 µM (inactive); in the assay on SNB-19, > 100 µM (inactive); with TK-10, > 100 µM (inactive). For the same molecule, in the assay on UACC-257, the GI50 is > 100 µM (inactive).
In the case of `CN(C)/C=N/CC(O)c1ccccc1` (stereo not drawn), the GI50 in the assay with HCT-15 is > 100 µM; with Hs-578T, 28.5 µM (inactive); with IGROV-1 it was > 100 µM (inactive); with KM12 it was > 100 µM (inactive); in the assay with LOX IMVI, > 100 µM (inactive); in the assay with MCF7, > 100 µM (inactive). In addition, the GI50 in the assay with MDA-MB-231, in the assay on NCI-H460, in the assay on PC-3, in the assay on RXF 393, in the assay on SF-268 and with SK-MEL-2 was > 100 µM (inactive) each time. Besides, the GI50 in the assay on SNB-19, in the assay on SW-620 and with TK-10 was > 100 µM (inactive) each time.
Regarding `CC(C)[Si]1(C(C)C)OCC2OC(n3ccc(=O)[nH]c3=O)C(O)(CO)C2O[Si](C(C)C)(C(C)C)O1` (stereo not drawn), the GI50 with HCT-15 is 18.4 µM; in the assay with Hs-578T it was 3.31 µM (inactive); with IGROV-1 it was 11.6 µM (inactive); in the assay with KM12, 16.5 µM (inactive); in the assay with LOX IMVI, 15.8 µM (inactive); with MCF7, 15.1 µM (inactive). Besides, the GI50 was 13.6 µM (inactive) in the assay on MDA-MB-231; 13 µM (inactive) in the assay on PC-3; 15.6 µM (inactive) with RXF 393; 13.8 µM (inactive) with SF-268; 16.7 µM (inactive) in the assay on SK-MEL-2; 15.3 µM (inactive) with SNB-19. Besides, the GI50 with SW-620 is 17.1 µM (inactive); in the assay on TK-10, 17.4 µM (inactive); in the assay with UACC-257, 15.3 µM (inactive).
